Results as given in patent publication US20200077648A1, “PHENOXYPHENYLAMIDINES AND THE USE THEREOF AS FUNGICIDES” (priority 2016, published 2020).

Test: Log P measurement by HPLC on reversed phase columns (EEC directive 79/831 Annex V.A8; methods [a], [b], [c])
Type: physicochemical
Conditions: method [a]: LC-UV, acidic range, 0.1% formic acid in water and acetonitrile as eluent
Experimental: If more than one Log P value is available within the same method, all the values are given and separated by “+”. […] Lambda-max-values were determined using UV-spectra from 200 nm to 400 nm and the peak values of the chromatographic signals.

Compound	LogP
CCN(C)C=Nc1cc(C)c(Oc2ccccc2Cl)cc1C(F)(F)F [Example 23]	2.08^[a]
CCN(C)C=Nc1cc(C)c(Oc2cccc(Cl)c2)cc1C [Example 1]	1.86^[a]
Cc1cc(N=CN(C)C(C)C)c(Cl)cc1Oc1ccccc1F [Example 62]	1.61^[a]
CCN(C)C=Nc1cc(C)c(Oc2ccccc2Br)cc1Cl [Example 29]	1.80^[a];
CCN(C)C=Nc1cc(C(F)F)c(Oc2ccccc2F)cc1C [Example 54]	1.49^[a]
CCN(C)C=Nc1cc(C)c(Oc2ccccc2)cc1C1CC1 [Example 51]	1.75^[a]
CCN(C)C=Nc1cc(C)c(Oc2ccccc2Br)cc1C(F)F [Example 40]	1.94^[a]
CCN(C)C=Nc1cc(C)c(Oc2ccccc2C#N)cc1C(F)(F)F [Example 27]	1.63^[a]
Cc1cc(N=CN(C)C(C)C)c(Br)cc1Oc1ccccc1F [Example 63]	1.63^[a]
CCN(C)C=Nc1cc(C)c(Oc2ccccc2C)cc1OC [Example 15]	1.60^[a];
Cc1cc(Oc2ccccc2F)c(C)cc1N=CN(C)C [Example 66]	1.43^[a]
CCN(C)C=Nc1cc(I)c(Oc2ccccc2Br)cc1C [Example 57]	1.75^[a]
Cc1cc(Oc2ccc(F)cc2)c(C)cc1N=CN(C)C(C)C [Example 4]	1.66^[a];
CCN(C)C=Nc1cc(Br)c(Oc2ccccc2I)cc1C [Example 47]	1.92^[a]
CCN(C)C=Nc1cc(I)c(Oc2ccccc2Cl)cc1C [Example 58]	1.72^[a]
CCN(C)C=Nc1cc(Br)c(Oc2ccccc2Cl)cc1C [Example 45]	1.79^[a]
CCN(C)C=Nc1cc(C)c(Oc2cccc(Cl)c2F)cc1Cl [Example 3]	1.88^[a]
CCN(C)C=Nc1cc(C)c(Oc2ccccc2)cc1C#N [Example 13]	1.58^[a];
CCN(C)C=Nc1cc(Cl)c(Oc2ccccc2C#N)cc1C [Example 18]	1.21^[a]
Cc1cc(N=CN(C)C)c(Cl)cc1Oc1ccccc1F [Example 60]	1.37^[a]
CCN(C)C=Nc1cc(I)c(Oc2ccccc2C)cc1C [Example 59]	1.78^[a]
CCN(C)C=Nc1cc(C)c(Oc2ccccc2C)cc1C(F)F [Example 6]	1.72^[a]

Compound	LogP
CCN(C)C=Nc1cc(Br)c(Oc2ccccc2C)cc1C [Example 43]	1.72^[a]
Cc1cc(N=CN(C)C)c(Br)cc1Oc1ccccc1F [Example 61]	1.39^[a]
CCN(C)C=Nc1cc(Cl)c(Oc2cccc(Cl)c2F)cc1C [Example 50]	1.83^[a]
CCN(C)C=Nc1cc(C)c(Oc2cccc(Cl)c2F)cc1C [Example 53]	1.89^[a]
CCN(C)C=Nc1cc(C)c(Oc2ccccc2F)cc1OC [Example 14]	1.46^[a];
Cc1cc(Oc2ccccc2)c(I)cc1N=CN(C)C [Example 32]	1.61^[a];
CCN(C)C=Nc1cc(C)c(Oc2ccccc2F)cc1C(F)(F)F [Example 24]	1.89^[a]
CCN(C)C=Nc1cc(C)c(Oc2ccccc2I)cc1C(F)(F)F [Example 26]	2.28^[a]
CCN(C)C=Nc1cc(C)c(Oc2ccccc2C2CC2)cc1C [Example 11]	2.09^[a]
CCN(C)C=Nc1cc(C)c(Oc2cccc(Cl)c2)cc1Cl [Example 49]	1.84^[a]
CCN(C)C=Nc1cc(C(F)(F)F)c(Oc2ccccc2C)cc1C [Example 33]	1.96^[a]
CCN(C)C=Nc1cc(C)c(Oc2ccccc2C)cc1C(F)(F)F [Example 28]	1.96^[a]
CCN(C)C=Nc1cc(C)c(Oc2ccccc2C#N)cc1Cl [Example 17]	1.21^[a]
CCN(C)C=Nc1cc(C2CC2)c(Oc2ccccc2F)cc1C [Example 52]	1.75^[a]
Cc1cc(N=CN(C)C)c(Cl)cc1Oc1ccccc1Br [Example 37]	1.55^[a];
CCN(C)C=Nc1cc(C)c(Oc2ccccc2Cl)cc1C(F)F [Example 39]	1.88^[a]
CCN(C)C=Nc1cc(C)c(Oc2ccccc2Br)cc1C(F)(F)F [Example 25]	2.17^[a]
CCN(C)C=Nc1cc(C)c(Oc2ccccc2)cc1C(F)(F)F [Example 22]	1.89^[a]
CCN(C)C=Nc1cc(C)c(Oc2ccccc2C#N)cc1C(F)F [Example 38]	1.55^[a]
CCc1ccccc1Oc1cc(C)c(N=CN(C)CC)cc1C [Example 10]	2.06^[a]
CCN(C)C=Nc1cc(Br)c(Oc2ccccc2Br)cc1C [Example 46]	1.84^[a]
CCc1cc(Oc2ccccc2)c(Br)cc1N=CN(C)C [Example 35]	1.37^[a];

Same assay, conditions: method [a]: LC-UV, acidic range, 0.1% formic acid in water and acetonitrile as eluent (linear gradient 10% to 95% acetonitrile)

Compound	LogP
C=C(C)c1cc(Oc2ccccc2)c(C)cc1N=CN(C)CC [Example 96]	1.63^[a]
CCN(C)C=Nc1cc(C)c(Oc2ccccc2SC)cc1C [Example 115]	1.55^[a]
CCN(C)C=Nc1cc(C)c(Oc2ccccc2C2CC2)cc1Cl [Example 74]	1.78^[a]
CCN(C)C=Nc1cc(C)c(Oc2ccccc2C2CC2)cc1Br [Example 94]	1.84^[a]
CCN(C)C=Nc1cc(C)c(Oc2ccccc2SC)cc1Br [Example 103]	1.82^[a]
CCN(C)C=Nc1cc(C)c(Oc2cccc(F)c2Br)cc1Cl [Example 79]	1.66^[a]
CCN(C)C=Nc1cc(C)c(Oc2ccccc2N(C)C)cc1C [Example 85]	0.55^[a]
CCN(C)C=Nc1cc(C)c(Oc2ccccc2C(=O)N(C)C)cc1Cl [Example 91]	0.97^[a]
CCN(C)C=Nc1cc(C2CC2)c(Oc2ccccc2C#N)cc1C [Example 119]	1.38^[a]
C=C(C)c1cc(N=CN(C)CC)c(C)cc1Oc1ccccc1C#N [Example 109]	1.60^[a]
CCN(C)C=Nc1cc(C)c(Oc2ccccc2[S+](C)[O-])cc1C (stereo not shown) [Example 116]	0.94^[a]
C#Cc1cc(Oc2ccccc2F)c(C)cc1N=CN(C)CC [Example 112]	1.44^[a]
CCc1cc(N=CN(C)CC)c(C)cc1Oc1ccccc1C#N [Example 108]	1.59^[a]
Cc1cc(Oc2ccccc2Br)c(C)cc1N=CN(C)C(C)C [Example 69]	1.97^[a]
CCN(C)C=Nc1cc(C)c(Oc2cccc(F)c2C)cc1C [Example 86]	1.72^[a]
CCN(C)C=Nc1cc(C)c(Oc2ccccc2C#N)cc1Br [Example 92]	1.27^[a]
CCN(C)C=Nc1cc(C)c(Oc2ccccc2)cc1C(=O)N(C)C [Example 87]	1.21^[a]
C#Cc1cc(Oc2ccccc2)c(C)cc1N=CN(C)CC [Example 111]	1.44^[a]
CCN(C)C=Nc1cc(C)c(Oc2ccccc2)cc1N(C)C [Example 82]	1.58^[a]
CCN(C)C=Nc1cc(C)c(Oc2ccccc2S(C)(=O)=O)cc1Cl [Example 75]	0.91^[a]
CCN(C)C=Nc1cc(C)c(Oc2ccccc2S(C)(=O)=O)cc1Br [Example 123]	0.94^[a]
C=C(C)c1cc(Oc2ccccc2F)c(C)cc1N=CN(C)CC [Example 97]	1.66^[a]

Compound	LogP
CCN(C)C=Nc1cc(C)c(Oc2cccc(F)c2C#N)cc1Br [Example 104]	1.58^[a]
Cc1cc(Oc2ccccc2C#N)c(I)cc1N=CN(C)C(C)C [Example 426]	1.41^[a]
CCN(C)C=Nc1cc(C)c(Oc2ccccc2N(C)C)cc1Br [Example 100]	1.07^[a]
CCN(C)C=Nc1cc(C)c(Oc2ccccc2)cc1C1CC1 [Example 113]	1.58^[a]
CCN(C)C=Nc1cc(C)c(Oc2ccccc2C(=O)OC)cc1Cl [Example 77]	1.35^[a]
CCN(C)C=Nc1cc(C)c(Oc2ccccc2N(C)C)cc1Cl [Example 76]	0.78^[a]
CCN(C)C=Nc1cc(C)c(Oc2ccccc2C(F)(F)F)cc1Cl [Example 90]	1.81^[a]
CCN(C)C=Nc1cc(C)c(Oc2ccccc2I)cc1Br [Example 99]	2.03^[a]
CCN(C)C=Nc1cc(C)c(Oc2ccccc2)cc1C#N [Example 72]	1.53^[a]
CCN(C)C=Nc1cc(C(C)C)c(Oc2ccccc2F)cc1C [Example 121]	1.75^[a]
CCN(C)C=Nc1cc(C)c(Oc2ccccc2Br)cc1C [Example 83]	1.63^[a]
Cc1cc(Oc2ccccc2C#N)c(C)cc1N=CN(C)C [Example 70]	1.25^[a]
C=Cc1ccccc1Oc1cc(Cl)c(N=CN(C)CC)cc1C [Example 89]	1.69^[a]
CCN(C)C=Nc1cc(C)c(Oc2ccccc2C(F)F)cc1Cl [Example 78]	1.55^[a]
CCN(C)C=Nc1cc(C)c(Oc2cccc(F)c2C)cc1Br [Example 95]	1.75^[a]
CCN(C)C=Nc1cc(C)c(Oc2ccccc2F)cc1C(=O)N(C)C [Example 117]	1.24^[a]
CCN(C)C=Nc1cc(C)c(Oc2ccccc2F)cc1N(C)C [Example 81]	1.58^[a]
CCN(C)C=Nc1cc(C)c(Oc2cc(F)ccc2C#N)cc1C [Example 84]	1.29^[a]
CCN(C)C=Nc1cc(C)c(Oc2ccccc2C(C)C)cc1Br [Example 98]	2.26^[a]
Cc1cc(Oc2ccccc2Br)c(C)cc1N=CN(C)C [Example 68]	1.66^[a]
CCN(C)C=Nc1cc(C)c(Oc2cccc(F)c2C#N)cc1C [Example 80]	1.32^[a]
CCN(C)C=Nc1cc(C)c(Oc2ccccc2S(C)(=O)=O)cc1C [Example 122]	0.91^[a]

Same assay, conditions: method [b]: LC-UV, neutral range, 0.001 molar ammonium acetate solution in water and acetonitrile as eluent

Compound	LogP
CCN(C)C=Nc1cc(C)c(Oc2ccccc2Br)cc1Cl [Example 29]	4.93^[b]
CCN(C)C=Nc1cc(C)c(Oc2ccccc2C)cc1OC [Example 15]	5.53^[b]
Cc1cc(Oc2ccc(F)cc2)c(C)cc1N=CN(C)C(C)C [Example 4]	5.63^[b]
CCN(C)C=Nc1cc(C)c(Oc2ccccc2)cc1C#N [Example 13]	3.78^[b]
CCN(C)C=Nc1cc(C)c(Oc2ccccc2F)cc1OC [Example 14]	4.33^[b]
Cc1cc(Oc2ccccc2)c(I)cc1N=CN(C)C [Example 32]	4.51^[b]
Cc1cc(N=CN(C)C)c(Cl)cc1Oc1ccccc1Br [Example 37]	4.47^[b]
CCc1cc(Oc2ccccc2)c(Br)cc1N=CN(C)C [Example 35]	4.29^[b]

Same assay, conditions: reversed phase HPLC column; method [a]: LC-UV, acidic range, 0.1% formic acid in water and acetonitrile as eluent

Compound	chromatographic logP
CCN(C)C=Nc1cc(C)c(Oc2ccccc2F)cc1C1CC1 [Example 34, N′-[2-cyclopropyl-4-(2-fluorophenoxy)-5-methyl-phenyl]-N-ethyl-N-methyl-formamidine]	1.69
